Reference: PubChem BioAssay (NCI)
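Dose response: 5 concentrations. Exposure: 48 h. Format: 96-well plates. Endpoint: linear interpolation; highest concentration if not reached. GI50 = concentration required for 50% inhibition of growth. TGI: total growth inhibition.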

Experiments:
Assay in all cases: growth of human tumour cells (NCI), 48 h
LXFL 529 NSCLC = test system: LXFL 529 NSCLC
DLD-1 colon = test system: DLD-1 colon
M19-MEL melanoma = test system: M19-MEL melanoma
DMS 114 small cell lung = test system: DMS 114 small cell lung
HOP-18 NSCLC = test system: HOP-18 NSCLC
DU-145 prostate = test system: DU-145 prostate
MDA-MB-231 breast = test system: MDA-MB-231 breast
PC-3 prostate = test system: PC-3 prostate
MDA-MB-435 = test system: MDA-MB-435
NCI/ADR-RES ovarian = test system: NCI/ADR-RES ovarian

Row | SMILES | TGI (LXFL 529 NSCLC) | TGI (DLD-1 colon) | TGI (M19-MEL melanoma) | TGI (DMS 114 small cell lung) | TGI (HOP-18 NSCLC) | GI50 (DU-145 prostate) | TGI (DU-145 prostate) | GI50 (MDA-MB-231 breast) | TGI (MDA-MB-231 breast) | GI50 (PC-3 prostate) | TGI (PC-3 prostate) | GI50 (MDA-MB-435) | TGI (MDA-MB-435) | GI50 (NCI/ADR-RES ovarian) | TGI (NCI/ADR-RES ovarian)
1 | C=C1C2Oc3ccccc3C1N(c1ccccc1)O2 (configuration not stated) | > 100 µM | > 100 µM | > 100 µM | 79 µM |  |  |  |  |  |  |  |  |  |  | 
2 | Cc1cccc(C)c1N1C(=O)C(=O)C(c2nc3ccccc3s2)C(=Nc2cccc3c(=O)[nH][nH]c(=O)c23)C1=O (configuration not stated) | > 100 µM | > 100 µM | > 100 µM |  | > 100 µM |  |  |  |  |  |  |  |  |  | 
3 | C[C@]12C/C(=C/O)C(=O)C(O)=C1CC[C@@H]1C2CC[C@@]2(C)C1CC[C@@H]2O (some centres not stated) | 31.7 µM |  | 45.3 µM | 37.5 µM | > 100 µM |  |  |  |  |  |  |  |  |  | 
4 | CC1=NN(C(=O)c2ccncc2)C(=O)C1N=Nc1ccc(F)cc1 (configuration not stated) | > 100 µM | > 100 µM | > 100 µM | > 100 µM |  |  |  |  |  |  |  |  |  |  | 
5 | CCCCCCC(C)CCCCCCCCCCC(=O)O (configuration not stated) | > 100 µM | > 100 µM | > 100 µM | > 100 µM | > 100 µM |  |  |  |  |  |  |  |  |  | 
6 | COc1cc(CNc2nc3ccc(C(F)(F)F)cc3nc2-c2ccccc2)cc(OC)c1OC | > 100 µM | > 100 µM | > 100 µM |  |  |  |  |  |  |  |  |  |  |  | 
7 | O=c1[nH]c2cc([N+](=O)[O-])ccc2nc1/C(=N\Nc1ccccc1)C(O)c1ccc2c(c1)OCO2 (configuration not stated) | > 100 µM | > 100 µM | > 100 µM | > 100 µM |  |  |  |  |  |  |  |  |  |  | 
8 | CC1(O)CCn2c(=O)c3cc4ccccc4cc3c(=O)n2C1O (configuration not stated) | > 100 µM | > 100 µM | > 100 µM | > 100 µM | > 100 µM |  |  |  |  |  |  |  |  |  | 
9 | CCOC(OC1=C(C#N)CCCC1)C(CC)[Se]c1ccccc1 (configuration not stated) | 65.9 µM | 34.4 µM | 48.7 µM | 15.4 µM | 54.1 µM |  |  |  |  |  |  |  |  |  | 
10 | CCCCCCCCCCCCCC[n+]1cccc(C(N)=O)c1 |  |  |  |  |  | 3.3 µM | 11.6 µM | 1.45 µM | 4.54 µM | 0.598 µM | 2.94 µM | 1.5 µM | 3.24 µM | 25.6 µM | > 80.3 µM
11 | CC(=O)n1c(=O)c2cc3c(=O)n(-c4cccc(C#N)c4)c(=O)c3cc2c1=O | > 100 µM | > 100 µM | > 100 µM | > 100 µM | > 100 µM |  |  |  |  |  |  |  |  |  | 
12 | C/C1=C\CC[C@@](C)(O)[C@@H]2C[C@H](CC/C(C)=C/CC1)C1(CC1)C(=O)O2 |  |  |  |  |  | 41.8 µM | > 100 µM | 13.6 µM | 32.6 µM | 27.8 µM | 69.4 µM | 16.5 µM | 35.1 µM | 28.3 µM | > 100 µM
13 | Cn1c(=O)nc2n(-c3ccc(Cl)c(C(F)(F)F)c3)c3ccccc3nc-2c1=O | > 100 µM | > 100 µM | 27.8 µM | 40.6 µM | > 100 µM |  |  |  |  |  |  |  |  |  | 
14 | O=C1c2cccc3cccc(c23)C(=O)N1O |  |  |  |  |  |  | > 100 µM |  | > 100 µM |  | > 100 µM |  | > 100 µM |  | > 100 µM
15 | COc1ccc(C2=C(N3CCc4ccccc43)C(=O)NC2=O)cc1 |  |  |  |  |  | > 25 µM | > 25 µM | > 22.4 µM | > 25 µM | > 20.2 µM | > 25 µM | > 25 µM | > 25 µM | > 25 µM | > 25 µM
16 | CCn1c(-c2nonc2N)nc2ccncc21 |  |  |  |  |  | > 25 µM | > 25 µM | > 25 µM | > 25 µM | > 25 µM | > 25 µM | > 25 µM | > 25 µM | > 25 µM | > 25 µM
17 | Cc1cccc(N(CC(=O)O)S(=O)(=O)c2ccccc2)c1 | > 100 µM | > 100 µM | > 100 µM |  | > 100 µM |  |  |  |  |  |  |  |  |  | 
18 | c1ccc2[nH]c(CNc3ccc(C4C[Se]N=N4)cc3)nc2c1 (configuration not stated) | 67.7 µM | > 100 µM | > 100 µM | 72.6 µM | > 100 µM |  |  |  |  |  |  |  |  |  | 
19 | COc1cccc2c(=O)c3c(sc12)c(NCCCNCCO)nc1ccccc13 |  |  |  |  |  | 1.65 µM | 3.11 µM | 1.35 µM | 2.86 µM | 1.23 µM | 2.7 µM | 1.72 µM | 3.2 µM | 1.81 µM | 3.94 µM
20 | COc1ccc(C2Oc3c(c(O)cc4c3[C@H](c3ccc(O)cc3O)[C@H](O)C(c3ccc(O)c(O)c3)O4)C[C@@H]2O)cc1O (some centres not stated) | > 100 µM | > 100 µM | > 100 µM | > 100 µM | > 100 µM |  |  |  |  |  |  |  |  |  | 
